Experimental data from PMC6792352, “Limited Chemical Structural Diversity Found to Modulate Thyroid Hormone Receptor in the Tox21 Chemical Library” (Environmental Health Perspectives, 2019).
Counter-ions that a name gives are not always drawn.

Test: in vitro
Settings: rat, gh3-tre-luc cells, AC50 (uM) modified / 1000

Structure (SMILES)	CC50 at 24 h
CCCC(=O)O[C@]1(C(=O)COC(=O)CC)[C@@H](C)C[C@H]2[C@@H]3CCC4=CC(=O)C=C[C@]4(C)[C@@]3(F)[C@@H](O)C[C@@]21C [Betamethasone butyrate propionate]	> 50 µM
CC(=O)Nc1nnc(S(N)(=O)=O)s1 [Acetazolamide]	> 90 µM
CC(=O)OCC(=O)[C@@]12N=C(C)O[C@@H]1C[C@H]1[C@@H]3CCC4=CC(=O)C=C[C@]4(C)[C@H]3[C@@H](O)C[C@@]12C [Deflazacort]	> 90 µM
O=c1c(-c2ccc(O)cc2)coc2cc(O)ccc12 [Daidzein]	> 90 µM
CCCCCCCCCCCCCC(=O)OCC(O)CO (stereo not shown) [Tetradecanoic acid, 2,3-dihydroxypropyl ester]	> 90 µM
O=C(CCN1CCN2CCCC2C1)N1c2ccccc2Sc2ccc(Cl)cc21 (stereo not shown) [Azaclorzine]	14.6 µM
O=S(O)CNc1ccc(S(=O)(=O)c2ccc(NCS(=O)O)cc2)cc1 [Adesulfone sodium]	> 50 µM
CC(=O)NCCCCCC(=O)O [Acexamic acid]	> 50 µM
CC(CO)(CO)[N+](=O)[O-] [2-Methyl-2-nitro-1,3-propanediol]	> 90 µM
CC1=NN(c2ccccc2)C(=O)C1 [1-Phenyl-3-methyl-5-pyrazolone]	> 90 µM
CCCCNCC [N-Ethyl-N-butylamine]	> 90 µM
CC(C)c1ncc([N+](=O)[O-])n1C [Ipronidazole]	> 50 µM
NCCNCCNCCN [Triethylenetetramine]	> 90 µM
CC(C)Cc1ccc(C(C)C(=O)O)cc1 (stereo not shown) [Ibuprofen]	> 90 µM
CCCOc1ccc(S(=O)(=O)N2CCN(CC)CC2)cc1-c1nc2c(CC)n(Cc3ccccn3)nc2c(=O)[nH]1 [UK-343664]	> 90 µM
O=C(O)c1cc(/N=N/c2ccc(S(=O)(=O)Nc3ccccn3)cc2)ccc1O [Sulfasalazine]	> 90 µM
CCSc1ccc2c(c1)N(CCCN1CCN(C)CC1)c1ccccc1S2 [Thiethylperazine malate]	> 20 µM
O=c1[nH]c2ccccc2o1 [2-Benzoxazolinone]	> 90 µM
CC(C)(C)NCC(O)c1cc(Cl)c(N)c(C(F)(F)F)c1 (stereo not shown) [Mabuterol hydrochloride]	22.3 µM
c1ccc2cnncc2c1 [Phthalazine]	> 90 µM
COc1ccc(-c2coc3cc(O)ccc3c2=O)cc1 [Formononetin]	> 90 µM
CN(C)CCCN1c2ccccc2Sc2ccc(Cl)cc21 [Chlorpromazine hydrochloride]	10.6 µM

Structure (SMILES)	CC50 at 24 h
O=C(CO)[C@@H](O)[C@H](O)[C@@H](O)CO [L-(-)-Sorbose]	> 50 µM
CO/N=C(\C(=O)N[C@@H]1C(=O)N2C(C(=O)O)=C(CSc3nc(=O)c(=O)[nH]n3C)CS[C@H]12)c1csc(N)n1 [Ceftriaxone disodium trihydrate]	> 50 µM
CC(=O)Oc1ccccc1C(=O)O [Aspirin]	> 90 µM
C=C[Si](OC)(OC)OC [Vinyltrimethoxysilane]	> 90 µM
S=C=S [Carbon disulfide]	> 90 µM
COc1ccc(CCC(=O)c2c(O)cc(O[C@@H]3O[C@H](CO)[C@@H](O)[C@H](O)[C@H]3O[C@@H]3O[C@@H](C)[C@H](O)[C@@H](O)[C@H]3O)cc2O)cc1O [Neohesperidin dihydrochalcone]	> 90 µM
O=C(CCc1ccc(O)cc1)c1c(O)cc(O)cc1O [Phloretin]	61.2 µM
COC(=O)c1sccc1S(=O)(=O)NC(=O)Nc1nc(C)nc(OC)n1 [Thifensulfuron-methyl]	> 90 µM
C#C[C@]1(O)CC[C@H]2[C@@H]3CCC4=CCCC[C@@H]4[C@H]3C(=C)C[C@@]21CC [Desogestrel]	34.9 µM
CN(C)CCc1ccc(O)cc1 [Hordenine]	> 50 µM
CNCCS(=O)(=O)O [Sodium 2-(methylamino)ethanesulfonate]	> 90 µM
CCN(CC)c1cccc(O)c1 [3-Diethylaminophenol]	> 90 µM
CCCCC(C=O)CC (stereo not shown) [2-Ethylhexanal]	> 90 µM
CC(=O)C=Cc1ccco1 [Furfural acetone]	> 100 µM
Nc1c(S(=O)(=O)O)cc(Br)c2c1C(=O)c1ccccc1C2=O [Bromamine acid sodium salt]	38.3 µM
CO[C@@H]1[C@@H](O[C@@H]2O[C@H](C)[C@@H](O[C@H]3C[C@@](C)(O)[C@@H](OC(=O)CC(C)C)[C@H](C)O3)[C@H](N(C)C)[C@H]2O)[C@@H](CC=O)C[C@@H](C)C(=O)/C=C/[C@@H]2O[C@H]2C[C@@H](C)OC(=O)C[C@H]1OC(C)=O [Carbomycin A]	34.1 µM
O=[N+]([O-])c1ccc2ccc3cccc4ccc1c2c34 [1-Nitropyrene]	> 90 µM
O=C(CCN1CCN(CCO)CC1)N1c2ccccc2Sc2ccc(C(F)(F)F)cc21 [Ftorpropazine]	16.3 µM
C[N+]1(C)CCN(CC(O)(c2ccccc2)C2CCCCC2)CC1 (stereo not shown) [Hexocyclium]	> 50 µM
CCOCCOCCOCCO [2-[2-(2-Ethoxyethoxy)ethoxy]ethanol]	> 90 µM
COc1cc2c(cc1OC)-c1cc3ccc(OC)c(OC)c3c[n+]1CC2 [Palmatine chloride hydrate]	> 90 µM
CC(=O)OC(C)C[N+](C)(C)C (stereo not shown) [Methacholine chloride]	> 20 µM

Structure (SMILES)	CC50 at 24 h
CCCCCCCCN[C@@H](C)[C@H](O)c1ccc(SC(C)C)cc1 (racemic) [Suloctdil]	4.84 µM
CC(C)=O [Acetone]	> 90 µM
OCC#CCO [2-Butyne-1,4-diol]	> 90 µM
CN1[C@@H]2CC[C@H]1CC(OC(c1ccccc1)c1ccccc1)C2 (stereo partly shown) [Benztropine methylsulfonate]	20.1 µM
O=C(O)c1cccc(C(F)(F)F)c1 [3-(Trifluoromethyl)benzoic acid]	> 90 µM
CCOCCOCCOCC [Diethylene glycol diethyl ether]	> 90 µM
O=c1[nH]c2ccccc2n1CCCN1CCC(n2c(=O)[nH]c3cc(Cl)ccc32)CC1 [Domperidone]	40.2 µM
COc1cc2c(cc1OC)[C@@H](c1ccccc1)CN(C)CC2 [Trepipam maleate]	> 50 µM
Cc1ccc(N)c([N+](=O)[O-])c1 [4-Methyl-2-nitroaniline]	> 90 µM
C[C@H]1[C@H](OC(=O)CCC(=O)O)O[C@@H]2O[C@@]3(C)CC[C@H]4[C@H](C)CC[C@@H]1[C@@]24OO3 [Artesunate]	2.69 µM
CC(C)(C)C(=O)O [2,2-Dimethylpropanoic acid]	> 90 µM
CC(=O)Nc1c(I)cc(I)c(C(=O)O)c1I [Acetrizoic acid]	> 50 µM
CSc1nnc(C(C)(C)C)c(=O)n1N [Metribuzin]	> 90 µM
Cc1ccccc1CCO [2-Methylphenethyl alcohol]	> 90 µM
CCCCCCCCOS(=O)(=O)O [Sodium octyl sulfate]	> 90 µM
C=CCc1ccccc1O [2-Allylphenol]	> 90 µM
CO/N=C(\C(=O)N[C@@H]1C(=O)N2C(C(=O)O)=C(C[N+]3(C)CCCC3)CS[C@H]12)c1csc(N)n1 [Cefepime chloride hydrochloride hydrate]	> 50 µM
CC(C)CC(C)(N)C#N (stereo not shown) [2-Amino-2,4-dimethylpentanenitrile]	> 90 µM
Cc1cc(-n2c(=O)[nH]c(=O)n(C)c2=O)ccc1Oc1ccc(S(=O)(=O)C(F)(F)F)cc1 [Toltrazuril sulfone]	> 50 µM
COc1ccc(N=[N+]([O-])c2ccc(OC)cc2)cc1 [4-Azoxyanisole]	> 90 µM

Same assay, conditions: rat, gh3-tre-luc cells, AC50 (uM) modified / 1000, Tox21_110001=Tox21_111223; viability, 1 nM T3 present, 24 h

Structure (SMILES)	CC50 at 24 h
C[C@]12CC[C@H](OS(=O)(=O)O)CC1=CC[C@@H]1[C@@H]2CC[C@]2(C)C(=O)CC[C@@H]12 [Sodium prasterone sulfate dihydrate]	> 50 µM

Same assay, conditions: rat, gh3-tre-luc cells, AC50 (uM) modified / 1000, Tox21_110001=Tox21_111517; viability, 1 nM T3 present, 24 h

Structure (SMILES)	CC50 at 24 h
C=CCC1(C(C)CCC)C(=O)N=C(S)NC1=O (stereo not shown) [Thiamylal sodium]	> 50 µM

Same assay, conditions: rat, gh3-tre-luc cells, AC50 (uM) modified / 1000, Tox21_110001=Tox21_112123; viability, 1 nM T3 present, 24 h

Structure (SMILES)	CC50 at 24 h
CNC(=O)NC(O)C(Cl)(Cl)Cl (stereo not shown) [Mecloralurea]	> 50 µM

Same assay, conditions: rat, gh3-tre-luc cells, AC50 (uM) modified / 1000, Tox21_110001=Tox21_112671; viability, 1 nM T3 present, 24 h

Structure (SMILES)	CC50 at 24 h
C[C@]12CC[C@H](O)C[C@H]1CC[C@@H]1[C@@H]2CC[C@]2(C)[C@@H](c3ccc(=O)oc3)C[C@H]3O[C@]132 [Bufogenin]	> 50 µM

Same assay, conditions: rat, gh3-tre-luc cells, AC50 (uM) modified / 1000, Tox21_110001=Tox21_112703; viability, 1 nM T3 present, 24 h

Structure (SMILES)	CC50 at 24 h
CN(C)C(Cc1ccccc1)c1ccccc1 (stereo not shown) [N,N-Dimethyl-1,2-diphenylethanamine]	> 50 µM

Same assay, conditions: rat, gh3-tre-luc cells, AC50 (uM) modified / 1000, Tox21_110001=Tox21_200635; viability, 1 nM T3 present, 24 h

Structure (SMILES)	CC50 at 24 h
N#CCCC#N [Succinonitrile]	> 90 µM

Same assay, conditions: rat, gh3-tre-luc cells, AC50 (uM) modified / 1000, Tox21_110001=Tox21_200894; viability, 1 nM T3 present, 24 h

Structure (SMILES)	CC50 at 24 h
O=C(O)C(Cl)Br (stereo not shown) [Bromochloroacetic acid]	> 90 µM

Same assay, conditions: rat, gh3-tre-luc cells, AC50 (uM) modified / 1000, Tox21_110001=Tox21_201430; viability, 1 nM T3 present, 24 h

Structure (SMILES)	CC50 at 24 h
C=CC(=O)OCCO [2-Hydroxyethyl acrylate]	> 90 µM

Same assay, conditions: rat, gh3-tre-luc cells, AC50 (uM) modified / 1000, Tox21_110001=Tox21_300702; viability, 1 nM T3 present, 24 h

Structure (SMILES)	CC50 at 24 h
CCNc1nc(NCC)nc(SC)n1 [Simetryn]	> 90 µM

Same assay, conditions: rat, gh3-tre-luc cells, AC50 (uM) modified / 1000, Tox21_110001=Tox21_300793; viability, 1 nM T3 present, 24 h

Structure (SMILES)	CC50 at 24 h
CON(C)C(=O)Nc1ccc(Br)c(Cl)c1 [Chlorbromuron]	> 90 µM

Same assay, conditions: rat, gh3-tre-luc cells, AC50 (uM) modified / 1000, Tox21_110001=Tox21_301297; viability, 1 nM T3 present, 24 h

Structure (SMILES)	CC50 at 24 h
NC(=O)CF [2-Fluoroacetamide]	> 90 µM

Same assay, conditions: rat, gh3-tre-luc cells, AC50 (uM) modified / 1000, Tox21_110001=Tox21_301582; viability, 1 nM T3 present, 24 h

Structure (SMILES)	CC50 at 24 h
CCOC(=O)CCN(SN(C)C(=O)Oc1cccc2c1OC(C)(C)C2)C(C)C [Benfuracarb]	64 µM
